The subject of one assay is IFN-γ. The assay can be described thus: IFN-γ reduction activity in Concanavalin A-treated splenocytes (quantitative ELISA). Type of assay: cell-based, C57BL/6 mouse. The conditions noted are these: Mus musculus, Splenocyte, Concanavalin A 5 µg/mL, 72 hours, read-out: IFN-γ Reduction Activity (%) (Mean±SD). Here is the method:
(§1) A spleen was isolated from an 8-week-old C57BL/6 mouse, and splenocytes were isolated using a physical method.
(§2) The separated splenocytes were diluted to a concentration of 5×10^6 cells/mL in a RPMI 1640 medium including 10% FBS, 100 U/mL of penicillin and 100 µg/mL of streptomycin, and the diluted splenocytes were dispensed at 500 µL/well into a 48-well plate and 100 µL/well into a 96-well plate, and cultured for 72 hours in an incubator. The splenocytes were treated with Concanavalin A (5 µg/mL) when dispensed to induce an immune response, and herein, […] of the pharmaceutical composition including the compound according to each of the Examples was also added thereto. After 72 hours, the supernatant was collected, and the level of remaining NO was checked through a Griess assay, and calculated by the following Equation 4.
NO is one of important inflammatory mediators, and may increase the level of inflammatory cytokine. Concanavalin A (5 µg/mL), which induces an immune response in splenocytes, and the compound of each of Examples were treated in a concentration-dependent manner to check whether the level of IFN-γ, a representative inflammatory cytokine, was reduced. The supernatant was collected 72 hours after the treatment, and analyzed using a quantitative enzyme-linked immunosorbent assay (Quantitative-ELISA).
On the technique in general: ELISA stands for enzyme-linked immunosorbent assay.

Assay [1] in a line: DAF-2 assay of NO scavenging activity without and with H2O2 (ROS). Type of assay: biochemical. The note with it: compound 10 µM, SNAP 100 µM, DAF-2 10 µM, 3 hours, 37°C. As to the method: The pharmaceutical composition sensitive to nitrogen monoxide including the compound according to each of Examples 23 to 28 and 32 may have scavenging activity for reactive oxygen species (ROS). NO scavenging activity of the pharmaceutical composition was evaluated through a DAF-2 assay.
Specifically, to a 100 µM solution of SNAP, the compound synthesized in each of the Examples was added at a concentration of the following Table 2, and reacted. Then 10 µM of DAF-2 was added thereto, followed by a reaction for 3 hours in a 37°C incubator.
Additionally, a stock solution of H2O2 (10 M) was added to the reaction solution so that SNAP and H2O2 had final concentrations of 100 µM and 1 mM, respectively. Then, the compound synthesized in each of the Examples was added thereto at a concentration of the following Table 11, followed by a reaction in the same manner, and NO scavenging activity was calculated by Equation 1.

Assay [2] deals with splenocytes. The assay can be described thus: Inhibitory activity on cell proliferation in splenocytes (CCK-8 analysis). The assay is classed as cell-based, C57BL/6 mouse. The conditions noted are these: Mus musculus, Splenocyte, Concanavalin A 5 µg/mL, 72 hours, read-out: Inhibitory Activity on Cell Proliferation (%) (Mean±SD).
Assay [3] has as its system splenocytes. Put plainly: NO scavenging activity in Concanavalin A-treated splenocytes (Griess assay). The assay is classed as cell-based, C57BL/6 mouse. The note with it: Mus musculus, Splenocyte, Concanavalin A 5 µg/mL, 72 hours, read-out: NO Scavenging Activity (%) (Mean±SD). As to the method:
as §1, §2
On the technique in general: Griess reagent forms a coloured azo dye with nitrite.

Another assay deals with Raw 264.7 cell line. The assay can be described thus: NO scavenging activity in LPS-treated immune cells (Griess reagent). Type of assay: cell-based. The note with it: Mus musculus, RAW264.7, Raw 264.7, LPS 500 ng/mL, 24 hours, read-out: NO Scavenging Activity (%) (Mean±SD). As to the method:
Raw 264.7 cell line was seeded in a 48-well plate at a density of 8×10^4 cells/well, and cultured at 37°C in a DMEM medium including 10% FBS, 100 U/mL of penicillin and 100 µg/mL of streptomycin.
The medium was cultured overnight, and then replaced with a fresh medium including 10 µM of the pharmaceutical composition sensitive to nitrogen monoxide including the compound of each of Examples 1 to 30 and 500 ng/mL of LPS, and the fresh medium was cultured again for another 24 hours.
Lastly, in order to measure the amount of NO produced, the amount of NO2^- present in the cell culture medium was measured using a Griess reagent (sulfanilamide, N-1-naphthylethylenediamine dihydrochloride). Specifically, 100 µL of a Griess reagent was mixed with a mixture solution of 50 µL of the cell culture medium and 50 µL of PBS. The mixture solution was reacted for 10 minutes in a well plate, and absorbance thereof at 540 nm was measured.

The next assay addresses JAK 1 (Homo sapiens, UniProt P23458). The assay can be described thus: JAK Human TK kinase enzymatic radiometric assay (Eurofins), JAK 1. The conditions noted are these: value close to 100 indicates low JAK activity of the compound.
A short description of assay [4]: DAF-2 assay of NO scavenging activity (NO donor SNAP). The assay is classed as biochemical. The conditions noted are these: DAF-2 10 µM, SNAP 100 µM, PBS, 3 hours, 37°C. Here is the method: NO scavenging activity of the pharmaceutical composition sensitive to nitrogen monoxide including the compound according to each of Examples 1 to 22, 29 to 31, and 33 to 35 was evaluated through a DAF-2 assay.
Specifically, a reagent stock solution was made using DMSO (dimethyl sulfoxide) in order to prepare 5 mM of DAF-2, 100 mM of SNAP and 5 mM of the compound synthesized in each of the Examples, and for the reaction, the solution was added to a PBS (phosphate buffered saline) solution so that DAF-2, SNAP and the compound had final concentrations of 10 µM, 100 µM and the concentration of Table 1, respectively, followed by a reaction for 3 hours in a 37°C incubator.

The values below come from patent EP4741395A1, “NOVEL COMPOUND SENSITIVE TO NITROGEN MONOXIDE AND PHARMACEUTICAL COMPOSITION COMPRISING SAME” (Omniamed Co. Ltd, priority 2023, dated 2025).

JAK 1, sequence (P23458 whole entry): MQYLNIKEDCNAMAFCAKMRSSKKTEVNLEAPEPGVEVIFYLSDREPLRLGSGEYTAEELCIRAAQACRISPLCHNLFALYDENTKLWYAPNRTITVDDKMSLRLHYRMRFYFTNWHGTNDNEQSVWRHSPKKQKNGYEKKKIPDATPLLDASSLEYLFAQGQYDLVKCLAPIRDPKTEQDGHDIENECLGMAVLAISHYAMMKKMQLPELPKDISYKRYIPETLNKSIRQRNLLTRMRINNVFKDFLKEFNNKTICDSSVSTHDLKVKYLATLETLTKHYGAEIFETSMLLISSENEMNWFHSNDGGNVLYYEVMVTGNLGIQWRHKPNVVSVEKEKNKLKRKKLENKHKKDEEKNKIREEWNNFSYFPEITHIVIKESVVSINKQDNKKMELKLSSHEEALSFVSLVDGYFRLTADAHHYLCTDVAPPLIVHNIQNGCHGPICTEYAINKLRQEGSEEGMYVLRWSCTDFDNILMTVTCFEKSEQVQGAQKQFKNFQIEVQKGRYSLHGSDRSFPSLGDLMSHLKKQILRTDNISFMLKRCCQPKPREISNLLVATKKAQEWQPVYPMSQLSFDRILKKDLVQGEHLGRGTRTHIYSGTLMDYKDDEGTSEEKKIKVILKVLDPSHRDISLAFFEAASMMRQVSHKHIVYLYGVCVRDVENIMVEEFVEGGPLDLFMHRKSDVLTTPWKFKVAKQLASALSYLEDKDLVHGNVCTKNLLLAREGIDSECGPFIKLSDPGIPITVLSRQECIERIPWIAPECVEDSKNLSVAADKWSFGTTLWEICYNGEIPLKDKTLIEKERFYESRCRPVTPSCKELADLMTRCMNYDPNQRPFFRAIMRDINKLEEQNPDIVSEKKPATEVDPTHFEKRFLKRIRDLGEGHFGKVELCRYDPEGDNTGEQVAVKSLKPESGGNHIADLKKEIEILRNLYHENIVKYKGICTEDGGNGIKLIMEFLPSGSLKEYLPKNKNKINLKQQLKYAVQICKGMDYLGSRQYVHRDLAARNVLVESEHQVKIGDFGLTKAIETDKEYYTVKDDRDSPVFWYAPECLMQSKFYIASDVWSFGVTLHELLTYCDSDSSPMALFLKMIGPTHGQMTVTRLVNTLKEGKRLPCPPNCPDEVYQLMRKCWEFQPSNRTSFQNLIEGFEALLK
Excerpt for JAK 1: For the compounds of the Examples, JAK activity of each of the compounds was verified using the JAK Human TK Kinase Enzymatic Radiometric Kinase Profiler Assay service provided by Eurofins Scientific.
The activity was verified after inducing a reaction at the JAK 1, 2 and 3 active sites using radioactively labeled ATP.

With `C[C@@H]1CCN(C(=O)CC#N)C[C@@H]1N(C)c1ncnc2c1ccn2C(=O)Nc1ccccc1NC(=O)OCc1ccc(B2OC(C)(C)C(C)(C)O2)cc1` [Example 25, 4-(4,4,5,5-tetramethyl-1,3,2-dioxaborolan-2-yl)benzyl (2-(4-(((3R,4R)-1-(2-cyanoacetyl)-4-methylpiperidin-3-yl) (methyl)amino)-7H-pyrrolo[2,3-d]pyrimidine-7-carboxamido)phenyl) carbamate], the activity at 10 µM in the assay on IFN-γ is 98.7 ± 0.04%; in the assay with splenocytes [3], 100%; with Raw 264.7 cell line, 63.2 ± 0.56%. Also, the “NO Scavenging Activity (%) (Mean±SD) Without H2O2” value in assay [1] turned out to be 42.36 ±1.91%. Moreover, in assay [1] (H2O2 1 mM), the “NO Scavenging Activity (%) (Mean±SD) With H2O2” value is recorded as 89.96 ±0.19%. In addition, in the assay on splenocytes [2], the inhibition at 10 µM turned out to be 81.4 ± 7.94%.

Take `C[C@@H]1CCN(C(=O)CC#N)C[C@@H]1N(C)c1ncnc2c1ccn2C(=O)N(C)CCN(C)C(=O)Nc1cc2c(cc1N)n(C)c(=O)n2C` [Example 22, N-(2-(3-(6-amino-1,3-dimethyl-2-oxo-2,3-dihydro-1H-benzo[d]imidazol-5-yl)-1-methylureido)ethyl)-4-(((3R,4R)-1-(2-cyanoacetyl)-4-methylpiperidin-3-yl) (methyl)amino)-N-methyl-7H-pyrrolo[2,3-d]pyrimidine-7-carboxamide]: the “JAK 1 Activity” value on JAK 1 (0.1 nM) is reported as 91; at JAK 1 (1 nM) it was 97; at JAK 1 (10 nM) it was 84; on JAK 1 (100 nM), 77. The results for the “NO Scavenging Activity (%) (Mean±SD)” value in assay [4] (compound 1 µM), in assay [4] (compound 5 µM) and in assay [4] (compound 10 µM) were 14.83 ±6.51%, 36.86 ±2.09% and 48.96 ±3.12%, respectively. Also, the inhibition at 10 µM with splenocytes [2] was 19.4 ± 0.21%. Further, the activity at 10 µM in the assay on splenocytes [3] worked out at 45.9 ± 0.51%; in the assay with Raw 264.7 cell line, 31.3 ± 0.88%.

For `Cc1ccc(N)c(NC(=O)n2ccc3c(N(C)[C@H]4CN(C(=O)CC#N)CC[C@H]4C)ncnc32)c1` [Example 2, N-(2-amino-5-methylphenyl)-4-(((3R,4R)-1-(2-cyanoacetyl)-4-methylpiperidin-3-yl)(methyl)amino)-7H-pyrrolo[2,3-d]pyrimidine-7-carboxamide], the activity at 10 µM with IFN-γ is 95.2 ± 0.39%; with splenocytes [3] it was 94.3 ± 0.27%; in the assay on Raw 264.7 cell line, 78.1 ± 0.21%. The inhibition at 10 µM in the assay on splenocytes [2] came out at 90.4 ± 4.69%.

As for `Cc1ccc(NC(=O)N(C)CCN(C)C(=O)n2ccc3c(N(C)[C@H]4CN(C(=O)CC#N)CC[C@H]4C)ncnc32)c(N)c1` [Example 15, N-(2-(3-(2-amino-4-methylphenyl)-1-methylureido)ethyl)-4-(((3R,4R)-1-(2-cyanoacetyl)-4-methylpiperidin-3-yl) (methyl)amino)-N-methyl-7H-pyrrolo[2,3-d]pyrimidine-7-carboxamide], the “JAK 1 Activity” value came out at 102 at JAK 1 (0.1 nM), 90 at JAK 1 (1 nM), 99 at JAK 1 (10 nM) and 66 on JAK 1 (100 nM). Also, the activity at 10 µM with IFN-γ amounted to 86.5 ± 0.29%; with splenocytes [3] it was 31.6 ± 0.16%; with Raw 264.7 cell line it was 54 ± 0.59%. The inhibition at 10 µM in the assay on splenocytes [2] is 22.6 ± 6.36%.

Take `C[C@@H]1CCN(C(=O)CC#N)C[C@@H]1N(C)c1ncnc2c1ccn2C(=O)Nc1cc2c(cc1N)n(C)c(=O)n2C` [Example 10, N-(6-amino-1,3-dimethyl-2-oxo-2,3-dihydro-1H-benzo[d]imidazol-5-yl)-4-(((3R,4R)-1-(2-cyanoacetyl)-4-methylpiperidin-3-yl)(methyl)amino)-7H-pyrrolo[2,3-d]pyrimidine-7-carboxamide]: the activity at 10 µM with IFN-γ was determined as 93 ± 2.99%; in the assay on splenocytes [3], 77 ± 0.87%; in the assay with Raw 264.7 cell line it was 93.7 ± 0.11%. The inhibition at 10 µM in the assay on splenocytes [2] turned out to be 76.3 ± 2.45%.

In the case of `Cc1ccc(NC(=O)n2ccc3c(N(C)[C@H]4CN(C(=O)CC#N)CC[C@H]4C)ncnc32)c(N)c1` [Example 3, N-(2-amino-4-methylphenyl)-4-(((3R,4R)-1-(2-cyanoacetyl)-4-methylpiperidin-3-yl)(methyl)amino)-7H-pyrrolo[2,3-d]pyrimidine-7-carboxamide], the activity at 10 µM was determined as 99.1 ± 0.61% with IFN-γ, 98.1 ± 0.34% in the assay with splenocytes [3] and 95.4 ± 0.11% in the assay with Raw 264.7 cell line. Moreover, the inhibition at 10 µM with splenocytes [2] is 76.2 ± 2.45%.

For the molecule `C[C@@H]1CCN(C(=O)CC#N)C[C@@H]1N(C)c1ncnc2c1ccn2C(=O)Nc1cc(N(C)C)ccc1N` [Example 5, N-(2-amino-5-(dimethylamino)phenyl)-4-(((3R,4R)-1-(2-cyanoacetyl)-4-methylpiperidin-3-yl)(methyl)amino)-7H-pyrrolo[2,3-d]pyrimidine-7-carboxamide], the activity at 10 µM in the assay on IFN-γ is 96.1 ± 0.45%; with splenocytes [3] it was 94.1 ± 0.52%; in the assay with Raw 264.7 cell line, 84.1 ± 0.01%. Further, the inhibition at 10 µM with splenocytes [2] came to 60.5 ± 5.48%.

For the molecule `Cc1ccc(N)c(NC(=O)N(C)CCN(C)C(=O)n2ccc3c(N(C)[C@H]4CN(C(=O)CC#N)CC[C@H]4C)ncnc32)c1` [Example 16, N-(2-(3-(2-amino-5-methylphenyl)-1-methylureido)ethyl)-4-(((3R,4R)-1-(2-cyanoacetyl)-4-methylpiperidin-3-yl) (methyl)amino)-N-methyl-7H-pyrrolo[2,3-d]pyrimidine-7-carboxamide], the “JAK 1 Activity” value on JAK 1 (0.1 nM) was determined as 101; on JAK 1 (1 nM), 104; on JAK 1 (10 nM), 98; at JAK 1 (100 nM), 59. The figures for the activity at 10 µM in the assay with IFN-γ, in the assay on splenocytes [3] and in the assay on Raw 264.7 cell line were 81.4 ± 0.5%, 27.1 ± 1.2% and 49.3 ± 0.23%, respectively. Besides, the inhibition at 10 µM with splenocytes [2] is 25 ± 5.67%.
